Reference: US10597388B2, “Pyridazinone herbicides” (FMC CORPORATION, priority 2014, dated 2020)

Legend:
Type in all cases: in vivo
[1] = tested on: oilseed rape (Brassica napus); experiment: Test C greenhouse herbicide test, pre- and postemergence
Method in brief: (§1)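 Seeds sown in loam–sand blend treated preemergence; plants in peat-based medium sprayed postemergence at 2–18 cm (1- to 4-leaf stage); chemicals in non-phytotoxic solvent with surfactant. Greenhouse 13–15 d, then visual rating versus controls on 0–100 scale (0 no effect, 100 complete control).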

[2] = tested on: johnsongrass (Sorghum halepense); experiment: as above
Method in brief: as §1

[3] = tested on: ragweed (common ragweed, Ambrosia elatior); experiment: as above
Method in brief: as §1

[4] = tested on: ryegrass, Italian (Italian ryegrass, Lolium multiflorum); experiment: Test A greenhouse herbicide test, pre- and postemergence
Method in brief: (§2)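 Seeds in loam–sand blend received a preemergence directed soil spray; plants at 2–10 cm, one- to two-leaf stage, received postemergence sprays. Compounds in a non-phytotoxic solvent with surfactant. After about 10 d in a greenhouse, injury rated visually versus untreated controls on a 0–100 scale (100 = complete control).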

[5] = tested on: foxtail, giant (giant foxtail, Setaria faberii); experiment: as above
Method in brief: as §2

corn (Zea mays) = experiment: as above; conditions: Postemergence; for Corn plant response rating: 0 to 100 scale, 0 is no effect, 100 is complete control
Method in brief: as §2

kochia (Kochia scoparia) = experiment: as above
Method in brief: as §2

[6] = tested on: wheat (Triticum aestivum); experiment: as above; conditions: Postemergence; for Wheat plant response rating: 0 to 100 scale, 0 is no effect, 100 is complete control
Method in brief: as §2

[7] = tested on: ragweed (common ragweed, Ambrosia elatior); experiment: as above
Method in brief: as §2

[8] = tested on: pigweed (Amaranthus retroflexus); experiment: as above
Method in brief: as §2

[9] = Postemergence, 31 g ai/ha, scale 0 to 100 (0 no effect, 100 complete control)
[10] = Postemergence, 125 g ai/ha, scale 0 to 100, 0 is no effect, 100 is complete control
[11] = Postemergence, 250 g ai/ha, scale 0 to 100, 0 no effect, 100 complete control, 13 to 15 d
[12] = Preemergence, 31 g ai/ha, scale 0 to 100, 0 is no effect, 100 is complete control
[13] = Preemergence, 62 g ai/ha, scale 0 to 100, 0 is no effect, 100 is complete control
[14] = Preemergence, 125 g ai/ha, scale 0 to 100, 0 is no effect, 100 is complete control
[15] = Preemergence, 250 g ai/ha, scale 0 to 100, 0 no effect, 100 complete control
[16] = Postemergence, 125 g ai/ha, 0 to 100 scale where 0 is no effect and 100 is complete control
[17] = Postemergence, 500 g ai/ha, visual rating after approx. 10 d, 0 to 100 scale (0 no effect, 100 complete control)
[18] = Preemergence, 125 g ai/ha, 0 to 100 scale where 0 is no effect and 100 is complete control
[19] = Preemergence, 500 g ai/ha, 0 to 100 scale where 0 is no effect and 100 is complete control
[20] = 125 g ai/ha, 0 to 100 scale where 0 is no effect and 100 is complete control
[21] = 500 g ai/ha, visual rating after approx. 10 d, 0 to 100 scale (0 no effect, 100 complete control)
[22] = Postemergence, 31 g ai/ha, 0 to 100 scale (0 no effect, 100 complete control)
[23] = postemergence, 62 g ai/ha, scale 0 to 100, 0 no effect, 100 complete control
[24] = Postemergence, 500 g ai/ha, 0 to 100 scale, 0 is no effect, 100 is complete control
[25] = Preemergence, 500 g ai/ha, 0 to 100 scale, 0 no effect, 100 complete control
[26] = Postemergence, 125 g ai/ha, visual rating after approx. 10 d, 0 to 100 scale (0 no effect, 100 complete control)

Structure (SMILES): Cc1ccc2ccccc2c1-c1c(O)c(C(F)(F)F)nn(C)c1=O [Compound 102]
- Plant response rating, Oilseed Rape [1, 9]: 0
- Plant response rating, Oilseed Rape [1, 10]: 5
- Plant response rating, Oilseed Rape [1, 11]: 30
- Plant response rating, Oilseed Rape [1, 12]: 0
- Plant response rating, Oilseed Rape [1, 13]: 10
- Plant response rating, Oilseed Rape [1, 14]: 10
- Oilseed Rape plant response rating [1, 15]: 35
- Plant response rating, Johnsongrass [2, 9]: 0
- Plant response rating, Johnsongrass [2, 10]: 0
- Plant response rating, Johnsongrass [2, 11]: 10
- Plant response rating, Johnsongrass [2, 12]: 0
- Plant response rating, Johnsongrass [2, 13]: 0
- Plant response rating, Johnsongrass [2, 14]: 0
- Johnsongrass plant response rating [2, 15]: 0
- Plant response rating, Ragweed [3, 9]: 95
- Plant response rating, Ragweed [3, 10]: 100
- Plant response rating, Ragweed [3, 11]: 100
- Plant response rating, Ragweed [3, 12]: 70
- Plant response rating, Ragweed [3, 13]: 75
- Plant response rating, Ragweed [3, 14]: 90
- Ragweed plant response rating [3, 15]: 100
- Plant response rating, Ryegrass, Italian [4, 16]: 20
- Plant response rating, Ryegrass, Italian [4, 17]: 80
- Ryegrass, Italian plant response rating [4, 18]: 60
- Plant response rating, Ryegrass, Italian [4, 19]: 60
- Plant response rating, Foxtail, Giant [5, 16]: 70
- Plant response rating, Foxtail, Giant [5, 17]: 90
- Foxtail, Giant plant response rating [5, 18]: 70
- Plant response rating, Foxtail, Giant [5, 19]: 90
- Plant response rating, Corn (corn (Zea mays); [20]): 20
- Plant response rating, Corn (corn (Zea mays); [21]): 20
- Plant response rating, Kochia (kochia (Kochia scoparia); [16]): 20
- Plant response rating, Kochia (kochia (Kochia scoparia); [17]): 40
- Kochia plant response rating (kochia (Kochia scoparia); [18]): 10
- Plant response rating, Kochia (kochia (Kochia scoparia); [19]): 30
- Plant response rating, Wheat [6, 20]: 20
- Plant response rating, Wheat [6, 21]: 20
- Plant response rating, Ragweed [7, 16]: 100
- Plant response rating, Ragweed [7, 17]: 100
- Ragweed plant response rating [7, 18]: 90
- Plant response rating, Ragweed [7, 19]: 90
- Plant response rating, Pigweed [8, 16]: 90
- Plant response rating, Pigweed [8, 17]: 90
- Pigweed plant response rating [8, 18]: 80
- Plant response rating, Pigweed [8, 19]: 100

Structure (SMILES): Cc1nn(C)c(=O)c(-c2ccc(Br)c3ccccc23)c1O [Compound 75]
- Oilseed Rape plant response rating [1, 22]: 70
- Plant response rating, Oilseed Rape [1, 10]: 90
- Plant response rating, Oilseed Rape [1, 11]: 80
- Plant response rating, Oilseed Rape [1, 12]: 30
- Plant response rating, Oilseed Rape [1, 13]: 70
- Plant response rating, Oilseed Rape [1, 14]: 90
- Oilseed Rape plant response rating [1, 15]: 98
- Oilseed Rape plant response rating [1, 23]: 70
- Johnsongrass plant response rating [2, 22]: 5
- Plant response rating, Johnsongrass [2, 10]: 5
- Plant response rating, Johnsongrass [2, 11]: 10
- Plant response rating, Johnsongrass [2, 12]: 0
- Plant response rating, Johnsongrass [2, 13]: 20
- Plant response rating, Johnsongrass [2, 14]: 20
- Johnsongrass plant response rating [2, 15]: 10
- Johnsongrass plant response rating [2, 23]: 5
- Ragweed plant response rating [3, 22]: 95
- Plant response rating, Ragweed [3, 10]: 100
- Plant response rating, Ragweed [3, 11]: 100
- Plant response rating, Ragweed [3, 12]: 80
- Plant response rating, Ragweed [3, 13]: 85
- Plant response rating, Ragweed [3, 14]: 90
- Ragweed plant response rating [3, 15]: 100
- Ragweed plant response rating [3, 23]: 85
- Plant response rating, Ryegrass, Italian [4, 16]: 90
- Ryegrass, Italian plant response rating [4, 24]: 100
- Ryegrass, Italian plant response rating [4, 18]: 100
- Plant response rating, Ryegrass, Italian [4, 19]: 100
- Plant response rating, Foxtail, Giant [5, 16]: 50
- Foxtail, Giant plant response rating [5, 24]: 50
- Foxtail, Giant plant response rating [5, 18]: 50
- Plant response rating, Foxtail, Giant [5, 19]: 90
- Plant response rating, Corn (corn (Zea mays); [20]): 0
- Corn plant response rating (corn (Zea mays); 500 g ai/ha): 20
- Plant response rating, Kochia (kochia (Kochia scoparia); [16]): 80
- Kochia plant response rating (kochia (Kochia scoparia); [24]): 90
- Kochia plant response rating (kochia (Kochia scoparia); [18]): 80
- Plant response rating, Kochia (kochia (Kochia scoparia); [19]): 90
- Plant response rating, Wheat [6, 20]: 0
- Wheat plant response rating ([6]; 500 g ai/ha): 20
- Plant response rating, Ragweed [7, 16]: 60
- Ragweed plant response rating [7, 24]: 90
- Ragweed plant response rating [7, 18]: 70
- Plant response rating, Ragweed [7, 19]: 90
- Plant response rating, Pigweed [8, 16]: 30
- Pigweed plant response rating [8, 24]: 50
- Pigweed plant response rating [8, 18]: 100
- Plant response rating, Pigweed [8, 19]: 100

Structure (SMILES): COC(=O)Oc1c(C)nn(C)c(=O)c1-c1c(C)sc2ccc(C)cc12 [Compound 80]
- Oilseed Rape plant response rating [1, 22]: 5
- Plant response rating, Oilseed Rape [1, 10]: 60
- Plant response rating, Oilseed Rape [1, 11]: 80
- Plant response rating, Oilseed Rape [1, 12]: 0
- Plant response rating, Oilseed Rape [1, 13]: 30
- Plant response rating, Oilseed Rape [1, 14]: 50
- Oilseed Rape plant response rating [1, 15]: 0
- Oilseed Rape plant response rating [1, 23]: 50
- Johnsongrass plant response rating [2, 22]: 5
- Plant response rating, Johnsongrass [2, 10]: 5
- Plant response rating, Johnsongrass [2, 11]: 15
- Plant response rating, Johnsongrass [2, 12]: 5
- Plant response rating, Johnsongrass [2, 13]: 5
- Plant response rating, Johnsongrass [2, 14]: 30
- Johnsongrass plant response rating [2, 15]: 35
- Johnsongrass plant response rating [2, 23]: 5
- Ragweed plant response rating [3, 22]: 98
- Plant response rating, Ragweed [3, 10]: 98
- Plant response rating, Ragweed [3, 11]: 98
- Plant response rating, Ragweed [3, 12]: 90
- Plant response rating, Ragweed [3, 13]: 95
- Plant response rating, Ragweed [3, 14]: 95
- Ragweed plant response rating [3, 15]: 100
- Ragweed plant response rating [3, 23]: 90
- Plant response rating, Ryegrass, Italian [4, 16]: 80
- Ryegrass, Italian plant response rating [4, 24]: 90
- Ryegrass, Italian plant response rating [4, 18]: 90
- Plant response rating, Ryegrass, Italian [4, 19]: 100
- Plant response rating, Foxtail, Giant [5, 16]: 80
- Foxtail, Giant plant response rating [5, 24]: 80
- Foxtail, Giant plant response rating [5, 18]: 80
- Plant response rating, Foxtail, Giant [5, 19]: 90
- Plant response rating, Corn (corn (Zea mays); [20]): 0
- Corn plant response rating (corn (Zea mays); 500 g ai/ha): 0
- Plant response rating, Kochia (kochia (Kochia scoparia); [16]): 90
- Kochia plant response rating (kochia (Kochia scoparia); [24]): 90
- Kochia plant response rating (kochia (Kochia scoparia); [18]): 90
- Plant response rating, Kochia (kochia (Kochia scoparia); [19]): 90
- Plant response rating, Wheat [6, 20]: 0
- Wheat plant response rating ([6]; 500 g ai/ha): 0
- Plant response rating, Ragweed [7, 16]: 80
- Ragweed plant response rating [7, 24]: 90
- Ragweed plant response rating [7, 18]: 80
- Plant response rating, Ragweed [7, 19]: 90
- Plant response rating, Pigweed [8, 16]: 90
- Pigweed plant response rating [8, 24]: 90
- Pigweed plant response rating [8, 18]: 90
- Plant response rating, Pigweed [8, 19]: 100

Structure (SMILES): Cc1ccc2ccccc2c1-c1c(O)c(I)nn(C)c1=O [Compound 29]
- Oilseed Rape plant response rating [1, 22]: 0
- Plant response rating, Oilseed Rape [1, 10]: 5
- Plant response rating, Oilseed Rape [1, 11]: 0
- Plant response rating, Oilseed Rape [1, 12]: 0
- Plant response rating, Oilseed Rape [1, 13]: 0
- Plant response rating, Oilseed Rape [1, 14]: 5
- Oilseed Rape plant response rating [1, 15]: 70
- Oilseed Rape plant response rating [1, 23]: 0
- Johnsongrass plant response rating [2, 22]: 0
- Plant response rating, Johnsongrass [2, 11]: 25
- Plant response rating, Johnsongrass [2, 12]: 10
- Plant response rating, Johnsongrass [2, 13]: 5
- Plant response rating, Johnsongrass [2, 14]: 25
- Johnsongrass plant response rating [2, 15]: 20
- Johnsongrass plant response rating [2, 23]: 5
- Ragweed plant response rating [3, 22]: 80
- Plant response rating, Ragweed [3, 10]: 95
- Plant response rating, Ragweed [3, 11]: 95
- Plant response rating, Ragweed [3, 12]: 80
- Plant response rating, Ragweed [3, 13]: 85
- Plant response rating, Ragweed [3, 14]: 85
- Ragweed plant response rating [3, 15]: 90
- Ragweed plant response rating [3, 23]: 90
- Plant response rating, Ryegrass, Italian [4, 16]: 90
- Ryegrass, Italian plant response rating [4, 24]: 100
- Ryegrass, Italian plant response rating [4, 18]: 80
- Plant response rating, Ryegrass, Italian [4, 25]: 90
- Plant response rating, Foxtail, Giant [5, 26]: 80
- Foxtail, Giant plant response rating [5, 24]: 90
- Foxtail, Giant plant response rating [5, 18]: 80
- Plant response rating, Foxtail, Giant [5, 25]: 90
- Plant response rating, Corn (corn (Zea mays); 125 g ai/ha, visual rating after approx. 10 d, 0 to 100 scale (0 no effect, 100 complete control)): 10
- Corn plant response rating (corn (Zea mays); 500 g ai/ha): 40
- Plant response rating, Kochia (kochia (Kochia scoparia); [26]): 80
- Kochia plant response rating (kochia (Kochia scoparia); [24]): 90
- Kochia plant response rating (kochia (Kochia scoparia); [18]): 60
- Plant response rating, Kochia (kochia (Kochia scoparia); [25]): 100
- Plant response rating, Wheat [6, 20]: 40
- Wheat plant response rating ([6]; 500 g ai/ha): 60
- Plant response rating, Ragweed [7, 26]: 90
- Ragweed plant response rating [7, 24]: 100
- Ragweed plant response rating [7, 18]: 90
- Plant response rating, Ragweed [7, 25]: 90
- Plant response rating, Pigweed [8, 26]: 90
- Pigweed plant response rating [8, 24]: 100
- Pigweed plant response rating [8, 18]: 100
- Plant response rating, Pigweed [8, 25]: 100
